Reference: US11945881B2, “Neoantigens expressed in ovarian cancer and their uses” (Janssen Biotech, Inc., priority 2020, dated 2024)

Key:
[1] = tested on: CD8+ T cells; assay: exogenous autologous normal donor restimulation assay, TNFα/IFNγ double positive CD8+ T cells by flow cytometry; assay type: cell-based, human; conditions: for Fold change (CD8+) vs. DMSO: maximum CD8+ T-cell response (TNFα and IFNγ); for Fold change (CD8+) vs. DMSO / Frequency (TNFα + IFNγ + CD8 T cells): donor independent, peptide pool 10 μg/mL, healthy donors; for Frequency (TNFα + IFNγ + CD8 T cells): maximum CD8+ T-cell response; for Immunogenic (yes/no): positive if CD8+ and/or CD4+ double positive TNFα/IFNγ frequency >=3-fold over DMSO and at least 0.01%
[2] = tested on: CD4+ T cells; assay: exogenous autologous normal donor restimulation assay, TNFα/IFNγ double positive CD4+ T cells by flow cytometry; assay type: cell-based, human; conditions: donor independent, peptide pool 10 μg/mL, healthy donors; for Fold change (CD4+) vs. DMSO: maximum CD4+ T-cell response (TNFα and IFNγ); for Frequency (TNFα + IFNγ + CD4 T cells): maximum CD4+ T-cell response

| Sequence | Fold change (CD8+) vs. DMSO [1] | Frequency (TNFα + IFNγ + CD8 T cells) [1] | Immunogenic (yes/no) [1] | Fold change (CD4+) vs. DMSO [2] | Frequency (TNFα + IFNγ + CD4 T cells) [2] |
| --- | --- | --- | --- | --- | --- |
| SRRLKLAQGRLRGLERLHSPQPFLQPMLPQGAQGPCKAPGQGQLLGGRREPDPS [AS14, neoantigen, alternative splicing of FOXH1] | 257.47 fold | 5.6% | Yes | 59.26 fold | 0.12% |
| STLNITLSFDSHHGHHPVSVI [FUS6, neoantigen, gene fusion PKHD1L1->EBAG9] | 4.47 fold | 0.096% | yes | 26.51 fold | 0.11% |
| TKKRKQSELQQP [AS95, neoantigen, alternative splicing of DMXL2] | 2.54 fold | 0.03% | No | 2.91 fold | 0.026% |
| TRSLDDLEKLDTLCCKLSVHVT [AS33, neoantigen, alternative splicing of RGS12] | 6958.6 fold | 43.7% | Yes | 32.24 fold | 0.28% |
| VEDEEKKEAGTHFIHLTGTTVSAGVPEEMPATTLRREVF [AS91, neoantigen, alternative splicing of ACIN1] | 46.44 fold | 0.21% | Yes | 36.02 fold | 0.23% |
| VEDEEKKEGSMLVAPTSPPSLEAGTHFIHLTGTTVSAGVPEEMPATTLRREVF [AS93, neoantigen, alternative splicing of ACIN1] | 459.18 fold | 0.9% | Yes | 253.72 fold | 1.62% |
| VEDEEKKEPDGAQRHLVDIGGSHQTSHAEKFLFLLCPPVV [AS90, neoantigen, alternative splicing of ACIN1] | 28.95 fold | 0.1% | Yes | 4.93 fold | 0.044% |
| VIPGDLSEAHGYSFS [AS5, neoantigen, alternative splicing of PLAG1] | 2.41 fold | 0.017% | Yes | 17.14 fold | 0.18% |
| VLRKTAHRSTTARCSCPPWLTCWPRVAAPGALSTVAREASWWLLTTEVV [AS74, neoantigen, alternative splicing of TRPM5] | 1018.49 fold | 6.6% | Yes | 17.23 fold | 0.064% |
